BigSolDB 2.1

CCCCCCCCC(=O)NCc1ccc(O)c(OC)c1
solubility (mole fraction)
Details	in DMSO	in MTBE	in acetone	in acetonitrile	in ethyl acetate	in methanol	in n-hexane	in water
293.2 K	0.257	0.019	0.161	0.0118	0.0625	0.219	4.06e-05	1.64e-05
298.2 K	0.315	0.0472	0.229	0.0357	0.117	0.28	7e-05	1.93e-05
303.2 K	0.403	0.114	0.299	0.0943	0.199	0.349	0.000119	2.32e-05
308.2 K	0.495	0.27	0.39	0.232	0.309	0.428	0.000189	2.71e-05
313.2 K	0.595	0.427	0.499	0.38	0.421	0.489	0.000296	3.24e-05
318.2 K	0.671	0.569	0.6	0.553	0.566	0.583	0.000457	3.7e-05
323.2 K	0.763	0.729	0.714	0.714	0.712	0.736	0.000595	4.27e-05
